Tests used:
[1] = biological target: T1, CYCLIN K (nuclear staining in CAL-120 cells) (Homo sapiens, UniProt O75909); test: CYCLIN K nuclear protein level: immunofluorescence high content analysis (CAL-120); format: cell-based; conditions: 24 h, 50% reduction of nuclear CCNK staining intensity, median, read-out: CYCLIN K degradation IF, DC50-[mol/l] (median)
T1 construct: endogenous in cells; host or cells: CAL-120 human breast cancer cells (DSMZ ACC 459)
Procedure, shortened: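 CAL-120 breast cancer cells treated in dose-response for 24 h at 37 °C, PFA-fixed and immunostained for cyclin K with Hoechst counterstain. Confocal imaging quantified nuclear intensity; DC50 is the concentration giving 50% reduction of nuclear CCNK staining, normalized to DMSO and control.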

[2] = biological target: T2, CDK12 protein level in CAL-120 breast cancer cells (Homo sapiens, UniProt Q9NYV4); test: CDK12 protein level: Protein Simple (CDK12, CAL-120); format: cell-based; conditions: CAL-120 cells, 18 h with compound, CDK12/HSP90 peak area ratio vs vehicle, median, read-out: CDK12 protein level in CAL-120 breast ca cells, DC50-[mol/l] (median)
T2 construct: endogenous in cells; host or cells: CAL-120 human breast cancer cells (DSMZ ACC 459)
T2 sequence (Q9NYV4 whole entry): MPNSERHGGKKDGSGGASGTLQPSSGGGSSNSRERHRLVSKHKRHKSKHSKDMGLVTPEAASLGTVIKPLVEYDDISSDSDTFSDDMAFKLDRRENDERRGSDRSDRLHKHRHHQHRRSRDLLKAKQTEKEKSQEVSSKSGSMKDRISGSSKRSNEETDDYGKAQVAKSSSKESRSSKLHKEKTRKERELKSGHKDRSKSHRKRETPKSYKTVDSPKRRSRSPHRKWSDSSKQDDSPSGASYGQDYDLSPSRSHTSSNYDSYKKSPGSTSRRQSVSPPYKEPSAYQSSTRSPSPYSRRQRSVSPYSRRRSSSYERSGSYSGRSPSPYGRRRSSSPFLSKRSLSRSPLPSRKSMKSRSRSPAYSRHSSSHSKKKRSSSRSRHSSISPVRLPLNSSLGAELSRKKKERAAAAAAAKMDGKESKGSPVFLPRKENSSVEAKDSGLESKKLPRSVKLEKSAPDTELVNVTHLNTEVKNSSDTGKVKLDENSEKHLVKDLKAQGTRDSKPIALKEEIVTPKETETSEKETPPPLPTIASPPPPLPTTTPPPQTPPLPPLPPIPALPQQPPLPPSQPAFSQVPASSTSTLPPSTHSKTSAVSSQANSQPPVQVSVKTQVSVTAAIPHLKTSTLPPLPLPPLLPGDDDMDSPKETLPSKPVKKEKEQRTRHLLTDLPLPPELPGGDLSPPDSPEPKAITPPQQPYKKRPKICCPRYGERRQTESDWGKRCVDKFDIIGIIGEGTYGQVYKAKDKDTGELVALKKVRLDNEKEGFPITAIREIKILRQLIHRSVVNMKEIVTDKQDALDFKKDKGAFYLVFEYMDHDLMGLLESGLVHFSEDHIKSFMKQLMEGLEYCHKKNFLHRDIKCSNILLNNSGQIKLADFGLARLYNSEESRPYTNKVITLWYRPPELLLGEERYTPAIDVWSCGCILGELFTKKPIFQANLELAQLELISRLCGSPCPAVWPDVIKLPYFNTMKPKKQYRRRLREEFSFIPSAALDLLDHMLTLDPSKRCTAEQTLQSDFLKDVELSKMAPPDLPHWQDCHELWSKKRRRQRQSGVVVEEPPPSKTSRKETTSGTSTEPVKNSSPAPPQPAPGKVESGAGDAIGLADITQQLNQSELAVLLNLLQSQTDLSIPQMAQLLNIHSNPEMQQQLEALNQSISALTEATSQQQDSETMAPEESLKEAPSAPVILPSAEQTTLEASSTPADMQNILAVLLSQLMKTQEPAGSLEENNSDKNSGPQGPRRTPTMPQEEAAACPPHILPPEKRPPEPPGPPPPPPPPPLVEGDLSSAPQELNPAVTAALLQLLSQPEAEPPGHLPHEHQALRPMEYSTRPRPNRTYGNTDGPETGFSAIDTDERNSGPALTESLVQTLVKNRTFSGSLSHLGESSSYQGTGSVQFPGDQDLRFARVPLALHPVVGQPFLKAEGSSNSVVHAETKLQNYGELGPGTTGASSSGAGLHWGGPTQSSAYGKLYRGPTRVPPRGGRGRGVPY
T2 sequence (O75909 whole entry partner): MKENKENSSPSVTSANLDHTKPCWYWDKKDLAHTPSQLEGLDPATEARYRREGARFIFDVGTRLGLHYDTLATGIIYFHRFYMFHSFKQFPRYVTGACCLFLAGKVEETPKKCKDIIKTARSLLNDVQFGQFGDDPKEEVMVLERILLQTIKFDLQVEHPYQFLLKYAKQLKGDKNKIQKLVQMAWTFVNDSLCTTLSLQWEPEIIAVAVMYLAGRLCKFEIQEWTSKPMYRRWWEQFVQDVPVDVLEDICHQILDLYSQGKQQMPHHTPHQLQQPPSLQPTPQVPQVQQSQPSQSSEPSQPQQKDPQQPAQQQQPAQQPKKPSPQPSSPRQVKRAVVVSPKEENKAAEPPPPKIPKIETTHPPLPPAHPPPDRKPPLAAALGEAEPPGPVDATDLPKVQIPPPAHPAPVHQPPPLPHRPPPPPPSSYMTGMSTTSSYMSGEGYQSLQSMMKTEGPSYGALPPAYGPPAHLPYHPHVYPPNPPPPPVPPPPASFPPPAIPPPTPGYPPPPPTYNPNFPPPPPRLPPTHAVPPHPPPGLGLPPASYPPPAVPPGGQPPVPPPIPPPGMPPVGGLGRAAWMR
Procedure, shortened: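 Cells grown 24 h, then treated with compounds for 18 h at 37° C against DMSO controls. Lysates (0.4 microgramms protein) run on Protein Simple 66-440 kDa size assay with CDK12 and HSP90 loading-control antibodies. CDK12/HSP90 peak-area ratios versus vehicle gave DC50 (50% reduction) by 4-parameter fit.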

CDK12/CycK = CDK12/CycK (Homo sapiens, UniProt Q9NYV4); test: CDK12/CycK high ATP kinase assay (TR-FRET, 2 mM ATP); format: biochemical; conditions: 2 mM ATP (high ATP); median; read-out: CDK12/CyclinK, 2 mM ATP (high ATP), IC50-[mol/l] (median)
CDK12/CycK, sequence (Q9NYV4 with tags, fused parts or gaps): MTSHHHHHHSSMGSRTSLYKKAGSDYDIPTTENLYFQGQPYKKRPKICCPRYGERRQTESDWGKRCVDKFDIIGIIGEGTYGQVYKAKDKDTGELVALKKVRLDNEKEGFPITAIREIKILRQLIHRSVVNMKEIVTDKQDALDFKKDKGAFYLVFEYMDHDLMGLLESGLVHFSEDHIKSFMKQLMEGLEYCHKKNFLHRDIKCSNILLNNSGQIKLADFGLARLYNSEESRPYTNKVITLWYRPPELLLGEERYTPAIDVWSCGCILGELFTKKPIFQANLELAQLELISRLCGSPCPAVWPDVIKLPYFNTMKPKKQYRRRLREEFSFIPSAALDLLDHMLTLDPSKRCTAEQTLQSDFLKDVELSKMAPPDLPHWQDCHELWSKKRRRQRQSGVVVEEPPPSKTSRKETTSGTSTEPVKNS
CDK12/CycK, sequence (O75909 1-300 partner limits assumed): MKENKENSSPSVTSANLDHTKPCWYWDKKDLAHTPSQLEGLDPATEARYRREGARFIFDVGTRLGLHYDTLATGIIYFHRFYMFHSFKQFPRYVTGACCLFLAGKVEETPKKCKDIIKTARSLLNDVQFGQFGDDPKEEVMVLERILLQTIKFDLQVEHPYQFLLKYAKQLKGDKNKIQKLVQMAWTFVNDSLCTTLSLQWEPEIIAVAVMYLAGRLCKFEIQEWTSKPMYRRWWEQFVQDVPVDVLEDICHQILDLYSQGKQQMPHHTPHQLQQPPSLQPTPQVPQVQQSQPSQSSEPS
Procedure, shortened: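 His-tagged human CDK12/CycK (~0.75 nM) pre-incubated 15 min with compound, then 60 min at 22 °C with 2 mM ATP and 1 µM biotinylated peptide (HEPES pH 7.5, 20 mM MgCl2). EDTA stop; phospho-Ser62 antibody/Eu anti-rabbit and streptavidin-XL665 TR-FRET, 665/620 nm ratio normalised to give IC50.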

T1 sequence (O75909 whole entry): as the sequence (O75909 whole entry partner) above
T1 sequence (Q9NYV4 whole entry partner): as the sequence (Q9NYV4 whole entry) above

SMILES | DC50 [1] [nM] | DC50 [2] [nM] | IC50 (CDK12/CycK) [nM]
Brc1cnn2c(NCc3nc4ccccc4[nH]3)nc(N3CCCC3)nc12 [Example 47, N-[(1H-benzimidazol-2-yl)methyl]-8-bromo-2-(pyrrolidin-1-yl)pyrazolo[1,5-a][1,3,5]triazin-4-amine] | 3.98 | 58.9 | 7190
COc1cccc(-c2nnc(CNc3nc(N4CCOCC4)nc4c(Br)cnn34)[nH]2)c1 [Example 50, 8-bromo-N-{[5-(3-methoxyphenyl)-4H-1,2,4-triazol-3-yl]methyl}-2-(morpholin-4-yl)pyrazolo[1,5-a][1,3,5]triazin-4-amine] | 4.22 | 39.6 | 2800
Fc1ccc2[nH]c(CNc3nc(N4CCN5CCC4CC5)nc4c(C(F)(F)F)cnn34)nc2c1F [Example 407, 2-(1,4-diazabicyclo[3.2.2]nonan-4-yl)-N-[(4,5-difluoro-1H-benzimidazol-2-yl)methyl]-8-(trifluoromethyl)pyrazolo[1,5-a][1,3,5]triazin-4-amine] | 0.643 | – | 706
Cc1cccc(-c2nnc(CNc3nc(N4CCOCC4)nc4c(Br)cnn34)[nH]2)c1 [Example 40, 8-bromo-N-{[5-(3-methylphenyl)-4H-1,2,4-triazol-3-yl]methyl}-2-(morpholin-4-yl)pyrazolo[1,5-a][1,3,5]triazin-4-amine] | 0.611 | – | 2440
Fc1cccc(-c2nnc(CNc3nc(N4CCOCC4)nc4c(Br)cnn34)[nH]2)c1 [Example 44, 8-bromo-N-{[5-(3-fluorophenyl)-4H-1,2,4-triazol-3-yl]methyl}-2-(morpholin-4-yl)pyrazolo[1,5-a][1,3,5]triazin-4-amine] | 2.58 | – | 1340
Brc1cnn2c(NCc3nc4ccccc4[nH]3)nc(N3CC4(COC4)C3)nc12 [Example 48, N-[(1H-benzimidazol-2-yl)methyl]-8-bromo-2-(2-oxa-6-azaspiro[3.3]heptan-6-yl)pyrazolo[1,5-a][1,3,5]triazin-4-amine] | 7.03 | < 30 | > 5710
CN1CCN(c2nc(NCc3nc4ccccc4[nH]3)n3ncc(CC(F)(F)F)c3n2)CC1 [Example 436, N-[(1H-benzimidazol-2-yl)methyl]-2-(4-methylpiperazin-1-yl)-8-(2,2,2-trifluoroethyl)pyrazolo [1,5-a][1,3,5]triazin-4-amine] | 15.9 | – | > 20000
Clc1cccc(-c2nnc(CNc3nc(N4CCOCC4)nc4c(Br)cnn34)[nH]2)c1 [Example 51, 8-bromo-N-{[5-(3-chlorophenyl)-4H-1,2,4-triazol-3-yl]methyl}-2-(morpholin-4-yl)pyrazolo[1,5-a][1,3,5]triazin-4-amine] | 3.15 | – | 1730
Brc1cnn2c(NCc3nc4ccccc4[nH]3)nc(N3CCCCC3)nc12 [Example 46, N-[(1H-benzimidazol-2-yl)methyl]-8-bromo-2-(piperidin-1-yl)pyrazolo[1,5-a][1,3,5]triazin-4-amine] | 1.54 | < 30 | 3330
C[C@@H]1COCCN1c1nc(NCc2nc3ccccc3[nH]2)n2ncc(Br)c2n1 [Example 56, N-[(1H-benzimidazol-2-yl)methyl]-8-bromo-2-[(3R)-3-methylmorpholin-4-yl]pyrazolo[1,5-a][1,3,5]triazin-4-amine] | 2.19 | – | 5310
FC(F)(F)c1cnn2c(NCc3nnc(-c4ccccc4)[nH]3)nc(N3CCOCC3)nc12 [Example 427, 2-(morpholin-4-yl)-N-[(5-phenyl-4H-1,2,4-triazol-3-yl)methyl]-8-(trifluoromethyl)pyrazolo[1,5-a][1,3,5]triazin-4-amine] | 9.95 | – | 1860
Cn1cc(-c2cnn3c(NCc4nc5cc(Cl)c(Cl)cc5[nH]4)nc(N4CCOCC4)nc23)cn1 [Example 419, N-[(5,6-dichloro-1H-benzimidazol-2-yl)methyl]-8-(1-methyl-1H-pyrazol-4-yl)-2-(morpholin-4-yl)pyrazolo[1,5-a][1,3,5]triazin-4-amine] | 9.09 | – | > 20000
N#Cc1cccc(-c2c[nH]c(CNc3nc(N4CCOCC4)nc4c(Br)cnn34)n2)c1 [Example 42, 3-[2-({[8-bromo-2-(morpholin-4-yl)pyrazolo[1,5-a][1,3,5]triazin-4-yl]amino}methyl)-1H-imidazol-4-yl]benzonitrile] | 0.587 | – | 406
CN1CCN(c2nc(NCc3nc4ccccc4[nH]3)n3ncc(C4CC4(F)F)c3n2)CC1 (centres unmarked) [Example 428, N-(1H-benzimidazol-2-ylmethyl)-8-(2,2-difluorocyclopropyl)-2-(4-methylpiperazin-1-yl)pyrazolo[1,5-a][1,3,5]triazin-4-amine] | 6.19 | – | > 20000
Brc1cnn2c(NCc3nnc(-c4ccccn4)[nH]3)nc(N3CCOCC3)nc12 [Example 54, 8-bromo-2-(morpholin-4-yl)-N-{[5-(pyridin-2-yl)-4H-1,2,4-triazol-3-yl]methyl}pyrazolo[1,5-a][1,3,5]triazin-4-amine] | 10.2 | < 30 | 5650

Second part, the molecule after the results:

DC50 [1] [nM] | DC50 [2] [nM] | IC50 (CDK12/CycK) [nM] | SMILES
5.35 | – | > 16800 | N#Cc1cnn2c(NCc3nc4ccccc4[nH]3)nc(N3CCOCC3)nc12 [Example 43, 4-{[(1H-benzimidazol-2-yl)methyl]amino}-2-(morpholin-4-yl)pyrazolo[1,5-a][1,3,5]triazine-8-carbonitrile]
2.09 | – | > 20000 | CN1CCN(c2nc(NCc3nc4c(F)c(F)ccc4[nH]3)n3ncc(CC(F)(F)F)c3n2)CC1 [Example 437, N-[(4,5-difluoro-1H-benzimidazol-2-yl)methyl]-2-(4-methylpiperazin-1-yl)-8-(2,2,2-trifluoroethyl) pyrazolo[1,5-a][1,3,5]triazin-4-amine]
1.74 | – | 2810 | CCc1cnn2c(NCc3nc4ccccc4[nH]3)nc(N3CCOCC3)nc12 [Example 431, N-[(1H-benzimidazol-2-yl)methyl]-8-ethyl-2-(morpholin-4-yl)pyrazolo[1,5-a][1,3,5]triazin-4-amine]
5.91 | – | 8510 | FC(F)Cc1cnn2c(NCc3nc4ccccc4[nH]3)nc(N3CCOCC3)nc12.O=C(O)C(F)(F)F [Example 444, trifluoroacetic acid N-[(1H-benzimidazol-2-yl)methyl]-8-(2,2-difluoroethyl)-2-(morpholin-4-yl)pyrazolo[1,5-a][1,3,5]triazin-4-amine]
0.353 | – | 2300 | CCc1cnn2c(NCc3nc4c(F)c(F)ccc4[nH]3)nc(N3CCOCC3)nc12 [Example 432, N-[(4,5-difluoro-1H-benzimidazol-2-yl)methyl]-8-ethyl-2-(morpholin-4-yl)pyrazolo[1,5-a][1,3,5]triazin-4-amine]
6.91 | – | > 20000 | Fc1ccc2[nH]c(CNc3nc(N4CCOCC4)nc4c(-c5nccs5)cnn34)nc2c1F [Example 413, N-[(4,5-difluoro-1H-benzimidazol-2-yl)methyl]-2-(morpholin-4-yl)-8-(1,3-thiazol-2-yl)pyrazolo [1,5-a][1,3,5]triazin-4-amine]

Source: patent US20230117034A1, “PYRAZOLOTRIAZINES” (Bayer Aktiengesellschaft, priority 2019, published 2023)
